Results: patent US4197407A, “Prostenoic acids and esters” (American Cyanamid Company, priority 1977, dated 1980)

What was measured:
[1] = tested on: mean arterial blood pressure; test: Hypotensive activity in anesthetized rats; type: in vivo, Male Wistar strain rats; conditions: intravenous infusion over one minute
Description: This procedure is a modification of the technique described by Pike, et al., Prostaglandins, Nobel Symposium 2, Stockholm, June, 1966, pg. 165.
Male Wistar strain rats (Royal Hart Farms) averaging approximately 250 g in weight are fastened to rat boards in a supine position by means of canvas vests and limb ties. The animals are anesthetized with a 900 mg/kg intraperitoneal dose of urethane. The left carotid artery is cannulated with polyethylene 50 tubing to measure arterial blood pressure and the left external jugular vein is cannulated with polyethylene 50 tubing for drug infusion. The animals are allowed to equilibrate for 15-30 minutes. The test compound is infused in 0.5 ml of saline, over a one minute period, at the indicated dose level, using a Harvard model 940 infusion pump and a 6 cc syringe at speed 5. Each drug dose is flushed with 0.4 ml of saline. The mean arterial blood pressure is measured before and after drug administration using a Statham model P23Db pressure transducer and a Brush model 260 recorder. The percent depression in mean arterial blood pressure and the duration of at least a 10% depression induced by representative compounds of this invention are recorded in Table C.

[2] = tested on: collagen induced platelet aggregation; test: Inhibition of platelet aggregation in vitro, collagen induced; type: cell-based, Human; set-up: key: (-): Inhibition; (+): No inhibition
Source text: (§1) It is well known that platelet aggregation inhibitors may be useful as anti-thrombotic drugs. Inhibition of platelet aggregation can be conveniently measured in vitro by monitoring changes in optical density and/or light transmission in platelet rich plasma upon addition of suitable aggregating agents such as adenosine diphosphate, epinephrine, thrombin or collagen. Alternatively, platelet aggregation can be measured in vitro using platelet rich plasma obtained at various time intervales from animals given inhibitors by an oral or parenteral route.
(§2) Human […] is incubated with modified Tyrode's solution in a proportion of 40-50% human […]. The test compounds are added at varying concentrations and after 5 minutes incubation, an aggregating agent such as adenosine diphosphate or collagen is added. The change in optical density (light transmission) is monitored by eye and inhibition is recorded as a (-) or lack of inhibition is recorded as a (+). Test compounds are considered active if they inhibit adenosine diphosphate or collagen induced aggregation at a concentration of 25 mcg/ml or less within 5-10 minutes.

[3] = tested on: adenosine diphosphate induced platelet aggregation; test: Inhibition of platelet aggregation in vitro, adenosine diphosphate induced; type: cell-based, Human; set-up: key: (-): Inhibition; (+): No inhibition
Source text: as §1, §2

[4] = tested on: respiratory depression produced by arachidonate; test: Inhibition of respiratory depression produced by arachidonate in mice, in vivo; set-up: species or system Swiss, male, albino mice; conditions: 2 hours before 50 mg/kg i.v. sodium arachidonate
Description: Swiss, male, albino mice, weighing about 20 g, are placed in control and drug groups, each with 4-6 mice and fasted. The drug mice are dosed with 50, 25, 10, or 1 mg/kg of a test compound suspended in volumes of 0.5, 0.25, or 0.10 ml of 2% starch solution. Control animals receive starch solution alone. After 2 hours all the mice are challenged with an intravenous dose of 50 mg/kg of sodium arachidonate in a volume of 0.2 ml, by tail vein. The onset of effect and duration of respiratory depression and recovery or death is quantitated. The percent inhibition of respiratory depression is computed from the mean of the drug group and the mean of the control group. Compounds giving 30% or more inhibition at 25 mg/kg or less are considered active.

[5] = tested on: bronchospasms elicited by 5-hydroxytryptamine; test: Bronchodilator activity (Konzett procedure) against 5-hydroxytryptamine; type: in vivo, guinea pigs; conditions: Cavia porcellus; three logarithmic cumulative intravenous doses; spasmogen 5-hydroxytryptamine i.v.
Description: (§3) Bronchodilator activity is determined in guinea pigs against bronchospasms elicited by intravenous injections of 5-hydroxytryptamine, histamine or acetylcholine by the Konzett procedure. [See J. Lulling, P. Lievens, F. El Sayed and J. Prignot, Arzeneimittel-Forschung, 18, 995 (1968).] In Table D, bronchodilator activity for representative compounds of this invention against one or more of the three spasmogenic agents is expressed as an ED50 determined from the results obtained with three logarithmic cumulative intravenous doses.

[6] = tested on: bronchospasms elicited by acetylcholine; test: Bronchodilator activity (Konzett procedure) against acetylcholine; type: in vivo, guinea pigs; conditions: Cavia porcellus; three logarithmic cumulative intravenous doses; spasmogen acetylcholine i.v.
Description: as §3

[7] = tested on: bronchospasms elicited by histamine; test: Bronchodilator activity (Konzett procedure) against histamine; type: in vivo, guinea pigs; conditions: Cavia porcellus; three logarithmic cumulative intravenous doses; spasmogen histamine i.v.
Description: as §3

O=C(O)CCCCCC[C@H]1C(=O)CC[C@@H]1/C=C/C1(O)CCCCC1 (relative stereo) [nat(and ent)-15-Hydroxy-9-oxo-15,16-tetramethylene-17,18,19,20-tetranor-13-trans-prostenoic Acid]
Duration in Minutes of at Least 10% Depression ([1]; dose 1.8 mg/kg): 4 min
Percent Depression of Mean Arterial Blood Pressure ([1]; dose 1.8 mg/kg): -9%
Inhibition of Platelet Aggregation - In Vitro, Collagen ([2]; drug concentration 0.25 μg/ml): (+)
Inhibition of Platelet Aggregation - In Vitro, Collagen ([2]; drug concentration 2.5 μg/ml): (+)
Inhibition of Platelet Aggregation - In Vitro, Collagen ([2]; drug concentration 25 μg/ml): (-)
Inhibition of Platelet Aggregation - In Vitro, Collagen ([2]; drug concentration 250 μg/ml): (-)
Inhibition of Platelet Aggregation - In Vitro, Adenosine Diphosphate ([3]; drug concentration 0.25 μg/ml): (+)
Inhibition of Platelet Aggregation - In Vitro, Adenosine Diphosphate ([3]; drug concentration 2.5 μg/ml): (+)
Inhibition of Platelet Aggregation - In Vitro, Adenosine Diphosphate ([3]; drug concentration 25 μg/ml): (-)
Inhibition of Platelet Aggregation - In Vitro, Adenosine Diphosphate ([3]; drug concentration 250 μg/ml): (-)
Inhibition of Respiratory Depression - In Vivo, Percent Inhibition ([4]; 1 mg/kg): 33%

CCCCC1CCCC1(O)/C=C/C1CCC(=O)C1CCCCCCC(=O)O [nat-15S,16R(and ent-15R,16S) and nat-15R,16S(and ent-15S,16R)-15-Hydroxy-9-oxo-15,16-trimethylene-13-trans-prostenoic Acid]
Duration in Minutes of at Least 10% Depression ([1]; dose 2.0 mg/kg): 4 min
Percent Depression of Mean Arterial Blood Pressure ([1]; dose 2.0 mg/kg): -38%
ED50 [5]: 0.32 µg/kg

CCCC[C@H]1CCC[C@@]1(O)/C=C/[C@H]1CCC(=O)[C@@H]1CCCCCCC(=O)OCC (relative stereo) [Ethyl nat-15S,16S(and ent-15R,16R)-15-hydroxy-9-oxo-15,16-trimethylene-13-trans-prostenoate]
Duration in Minutes of at Least 10% Depression ([1]; dose 1.6 mg/kg): 5 min
Percent Depression of Mean Arterial Blood Pressure ([1]; dose 1.6 mg/kg): -43%

CCCC[C@@H]1CCC[C@]1(O)/C=C/[C@H]1CCC(=O)[C@@H]1CCCCCCC(=O)OCC (relative stereo) [Ethyl nat-15R,16R(and ent-15S,16S)-15-hydroxy-9-oxo-15,16-trimethylene-13-trans-prostenoate]
Duration in Minutes of at Least 10% Depression ([1]; dose 4.0 mg/kg): 4 min
Percent Depression of Mean Arterial Blood Pressure ([1]; dose 4.0 mg/kg): -16%

O=C(O)CCC/C=C\C[C@H]1C(=O)C=C[C@@H]1/C=C/C1(O)CCCCC1 (relative stereo) [nat(and ent)-15-Hydroxy-9-oxo-15,16-tetramethylene-17,18,19,20-tetranor-13-trans,5-cis,10-prostatrienoic acid]
ED50 [6]: > 3.2 µg/kg
ED50 [7]: 0.632 µg/kg
Inhibition of Platelet Aggregation - In Vitro, Collagen ([2]; drug concentration 25 μg/ml): (+)
Inhibition of Platelet Aggregation - In Vitro, Collagen ([2]; drug concentration 250 μg/ml): (-)
Inhibition of Platelet Aggregation - In Vitro, Adenosine Diphosphate ([3]; drug concentration 25 μg/ml): (+)
Inhibition of Platelet Aggregation - In Vitro, Adenosine Diphosphate ([3]; drug concentration 250 μg/ml): (-)
ED50 [5]: > 3.2 µg/kg

O=C(O)CCCCCC[C@H]1C(=O)C[C@@H](O)[C@@H]1/C=C/C1(O)CCCCC1 (relative stereo) [nat(and ent)-11α,15-Dihydroxy-9-oxo-15,16-tetramethylene-17,18,19,20-tetranor-13-trans-prostenoic Acid]
Duration in Minutes of at Least 10% Depression ([1]; dose 2.1 mg/kg): 16 min
Percent Depression of Mean Arterial Blood Pressure ([1]; dose 2.1 mg/kg): -39%
Inhibition of Platelet Aggregation - In Vitro, Collagen ([2]; drug concentration 0.25 μg/ml): (+)
Inhibition of Platelet Aggregation - In Vitro, Collagen ([2]; drug concentration 2.5 μg/ml): (-)
Inhibition of Platelet Aggregation - In Vitro, Collagen ([2]; drug concentration 25 μg/ml): (-)
Inhibition of Platelet Aggregation - In Vitro, Collagen ([2]; drug concentration 250 μg/ml): (-)
Inhibition of Platelet Aggregation - In Vitro, Adenosine Diphosphate ([3]; drug concentration 0.25 μg/ml): (+)
Inhibition of Platelet Aggregation - In Vitro, Adenosine Diphosphate ([3]; drug concentration 2.5 μg/ml): (-)
Inhibition of Platelet Aggregation - In Vitro, Adenosine Diphosphate ([3]; drug concentration 25 μg/ml): (-)
Inhibition of Platelet Aggregation - In Vitro, Adenosine Diphosphate ([3]; drug concentration 250 μg/ml): (-)

O=C(O)CCC/C=C\C[C@H]1C(=O)C[C@@H](O)[C@@H]1/C=C/C1(O)CCCCC1 (relative stereo) [nat(and ent)-11α,15-Dihydroxy-9-oxo-15,16-tetramethylene-17,18,19,20-tetranor-5-cis,13-trans-prostadienoic Acid]
ED50 [6]: 0.115 µg/kg
Duration in Minutes of at Least 10% Depression ([1]; dose 2.2 mg/kg): 23 min
Percent Depression of Mean Arterial Blood Pressure ([1]; dose 2.2 mg/kg): -31%
Inhibition of Platelet Aggregation - In Vitro, Collagen ([2]; drug concentration 0.25 μg/ml): (+)
Inhibition of Platelet Aggregation - In Vitro, Collagen ([2]; drug concentration 2.5 μg/ml): (-)
Inhibition of Platelet Aggregation - In Vitro, Collagen ([2]; drug concentration 25 μg/ml): (-)
Inhibition of Platelet Aggregation - In Vitro, Collagen ([2]; drug concentration 250 μg/ml): (-)
Inhibition of Platelet Aggregation - In Vitro, Adenosine Diphosphate ([3]; drug concentration 0.25 μg/ml): (+)
Inhibition of Platelet Aggregation - In Vitro, Adenosine Diphosphate ([3]; drug concentration 2.5 μg/ml): (-)
Inhibition of Platelet Aggregation - In Vitro, Adenosine Diphosphate ([3]; drug concentration 25 μg/ml): (-)
Inhibition of Platelet Aggregation - In Vitro, Adenosine Diphosphate ([3]; drug concentration 250 μg/ml): (-)
Inhibition of Respiratory Depression - In Vivo, Percent Inhibition ([4]; 10 mg/kg): 6%
Inhibition of Respiratory Depression - In Vivo, Percent Inhibition ([4]; 25 mg/kg): 14%

O=C(O)CCCCCC[C@H]1C(=O)CC[C@@H]1/C=C/C1=CCCCC1 (relative stereo) [nat(and ent)-9-oxo-15,16-Tetramethylene-17,18,19,20-tetranor-15,13-trans-prostadienoic Acid]
Inhibition of Platelet Aggregation - In Vitro, Collagen ([2]; drug concentration 25 μg/ml): (-)
Inhibition of Platelet Aggregation - In Vitro, Collagen ([2]; drug concentration 250 μg/ml): (-)
Inhibition of Platelet Aggregation - In Vitro, Adenosine Diphosphate ([3]; drug concentration 25 μg/ml): (-)
Inhibition of Platelet Aggregation - In Vitro, Adenosine Diphosphate ([3]; drug concentration 250 μg/ml): (-)
Inhibition of Respiratory Depression - In Vivo, Percent Inhibition ([4]; 25 mg/kg): 28%

CCCCC1CCCC1(O)/C=C/C1CCC(=O)C1CCCCCCC(=O)OCC [Ethyl nat-15S,16R(and ent-15R,16S)-15-hydroxy-9-oxo-15,16-trimethylene-13-trans-prostenoate and Ethyl nat-15R,16S(and ent-15S,16R)-15-hydroxy-9-oxo-15,16-trimethylene-13-trans-prostenoate]
Duration in Minutes of at Least 10% Depression ([1]; dose 1.9 mg/kg): 7 min
Percent Depression of Mean Arterial Blood Pressure ([1]; dose 1.9 mg/kg): -18%

CCCC[C@H]1CCC[C@@]1(O)/C=C/[C@H]1CCC(=O)[C@@H]1CCCCCCC(=O)O (relative stereo) [nat-15S,16S(and ent-15R,16R)-15-Hydroxy-9-oxo-15,16-trimethylene-13-trans-prosenoic Acid]
ED50 [6]: 0.413 µg/kg
ED50 [5]: 0.112 µg/kg

CCCCC1CCCC1(O)/C=C/C1C(O)CC(=O)C1C/C=C\CCCC(=O)O [nat-15S,16R(and ent-15R,16S) and nat-15R,16S-(and ent-15S,16R)-11α,15-Dihydroxy-9-oxo-15,16-trimethylene-13-trans-5-cis-prostadienoic Acid]
Duration in Minutes of at Least 10% Depression ([1]; dose 1.7 mg/kg): > 10 min
Percent Depression of Mean Arterial Blood Pressure ([1]; dose 1.7 mg/kg): -47%
Inhibition of Platelet Aggregation - In Vitro, Collagen ([2]; drug concentration 250 μg/ml): (+)
Inhibition of Platelet Aggregation - In Vitro, Adenosine Diphosphate ([3]; drug concentration 25 μg/ml): (+)
Inhibition of Platelet Aggregation - In Vitro, Adenosine Diphosphate ([3]; drug concentration 250 μg/ml): (-)
